{
  "source": "paper PMC3013619",
  "about": "(Cell host & microbe, 2009)",
  "data": [
    {"biological_target": "T1, TgAPT (apicoplast phosphate translocator), TgAPT-N (Toxoplasma gondii, UniProt A7U554)", "T1 sequence (A7U554 1-352)": "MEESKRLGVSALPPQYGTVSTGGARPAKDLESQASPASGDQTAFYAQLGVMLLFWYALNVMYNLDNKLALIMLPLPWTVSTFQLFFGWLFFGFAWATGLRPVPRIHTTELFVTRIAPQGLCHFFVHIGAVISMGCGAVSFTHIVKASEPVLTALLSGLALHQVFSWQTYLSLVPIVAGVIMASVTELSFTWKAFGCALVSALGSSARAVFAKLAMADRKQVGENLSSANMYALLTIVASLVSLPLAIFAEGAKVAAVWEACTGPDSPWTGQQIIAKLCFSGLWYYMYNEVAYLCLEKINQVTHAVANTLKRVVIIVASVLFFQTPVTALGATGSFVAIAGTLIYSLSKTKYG", "assay": "[…]-Pi uptake into proteoliposomes, competitive inhibition", "assay_type": "biochemical", "conditions": "competitive with Pi; apparent; pH 7.6; reconstituted solubilized yeast membranes", "units": {"Kinetic constant ^d / TgAPT": "mM"}, "values": [
      {"compound": "O=C(O)[C@H](O)COP(=O)(O)O", "note": "[3-PGA]", "Kinetic constant ^d / TgAPT": "1.33 ± 0.49"},
      {"compound": "C=C(OP(=O)(O)O)C(=O)O", "note": "[PEP]", "Kinetic constant ^d / TgAPT": "1.65 ± 0.52"},
      {"compound": "triose phosphate", "Kinetic constant ^d / TgAPT": "1.63 ± 0.26"}
    ]}
  ]
}
